Assay results reported in patent publication US20250090524A1, “BTK INHIBITORS” (BIOGEN MA INC., priority 2021, published 2025).

Key:
[1] = system: CD69 expression on CD19+ B cells in human whole blood; assay: In Vitro Whole Blood CD69 Assay; format: cell-based; conditions: B-cell; human heparinized whole blood, anti-human IgD stimulation, overnight (18 to 22 hours), percentage of CD19+ B cells expressing CD69, flow cytometry; read-out: In Vitro HWB CD69 Assay IC50 Score
Protocol: Human heparinized venous blood from health donors was aliquoted into 96-well plate and “spiked” with serial dilutions of formula I compounds in DMSO or with DMSO without drug. The final concentration of DMSO in all wells was 0.1%. The plate was incubated at 37° C. for 30 min. Drug-containing samples were stimulated with […] mouse anti-human IgD-dextran (1A62) or 20 μg/mL polyclonal rabbit F(ab′)2 anti-human IgD.
Phosphate-buffered saline (PBS) was added to the negative control unstimulated sample and the plates were incubated overnight (18 to 22 hours) at 37° C. Cells were stained with fluorochrome-conjugated anti-CD19 and anti-CD69 antibodies. Lyse/fix solution was used to remove red blood cells by hypotonic lysis and to fix the remaining cells, which were then analyzed by flow cytometry. CD19+B cells were gated and analyzed for CD69 expression.
The percentage of B cells expressing CD69 was plotted versus the log 10 of the concentration of the drug and the best-fit curves (variable Hill slope) were generated to obtain the IC50 value.
“†” represents an IC50 of greater than 10 μM. “††” represents an IC50 of greater than 1 μM and equal to or less than 10 μM (1 μM<IC50≤10 μM). “†††” represents an IC50 of less than 1 μM.

BTK = target: T1, BTK (Homo sapiens, UniProt Q06187); assay: In Vitro BTK Kinase Assay: Btk-PolyGAT-LS Assay; format: biochemical; conditions: active BTK enzyme 0.25 nM, fluorescein-labeled polyGAT peptide 100 nM, 30 minutes incubation, TRF readout; read-out: In Vitro BTK Kinase Assay IC50 Score
T1 construct: purchased Upstate 14-552
T1 sequence (Q06187 whole entry): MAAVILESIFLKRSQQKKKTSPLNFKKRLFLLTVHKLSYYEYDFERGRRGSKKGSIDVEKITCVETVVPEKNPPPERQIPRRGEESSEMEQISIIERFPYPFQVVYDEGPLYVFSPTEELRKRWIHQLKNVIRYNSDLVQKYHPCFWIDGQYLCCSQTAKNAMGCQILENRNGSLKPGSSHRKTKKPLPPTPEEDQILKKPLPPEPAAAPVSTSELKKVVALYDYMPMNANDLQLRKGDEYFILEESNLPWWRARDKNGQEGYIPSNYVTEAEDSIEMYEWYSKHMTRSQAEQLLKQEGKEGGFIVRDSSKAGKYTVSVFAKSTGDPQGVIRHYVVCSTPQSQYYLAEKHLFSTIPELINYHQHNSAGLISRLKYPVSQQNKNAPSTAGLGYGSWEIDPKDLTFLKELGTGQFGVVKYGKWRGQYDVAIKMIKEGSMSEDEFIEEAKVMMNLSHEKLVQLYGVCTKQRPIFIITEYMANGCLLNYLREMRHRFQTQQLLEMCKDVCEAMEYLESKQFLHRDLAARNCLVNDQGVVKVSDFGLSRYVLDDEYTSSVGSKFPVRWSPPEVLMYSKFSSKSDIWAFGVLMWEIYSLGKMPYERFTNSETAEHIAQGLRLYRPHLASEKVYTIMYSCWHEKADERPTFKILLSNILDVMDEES
Protocol: The purpose of the BTK in vitro assay is to determine compound potency against BTK through the measurement of IC50. Compound inhibition is measured after monitoring the amount of phosphorylation of a fluorescein-labeled polyGAT peptide (Invitrogen PV3611) in the presence of active BTK enzyme (Upstate 14-552), ATP, and inhibitor. The BTK kinase reaction was done in a black 96 well plate (costar 3694). For a typical assay, a 24 μL aliquot of a ATP/peptide master mix (final concentration; ATP […], polyGAT 100 nM) in kinase buffer (10 mM Tris-HCl pH 7.5, 10 mM MgCl2, 200 μM […], 5 mM DTT, 0.01% Triton X-100, and 0.2 mg/ml casein) is added to each well. Next, I uL of a 4-fold, 40× compound titration in 100% DMSO solvent is added, followed by adding […] of BTK enzyme mix in 1× kinase buffer (with a final concentration of 0.25 nM). The assay is incubated for 30 minutes before being stopped with […] of a 50 mM EDTA solution. Aliquots (5 uL) of the kinase reaction are transferred to a low volume white 384 well plate (Corning 3674), and […] of a 2× detection buffer (Invitrogen PV3574, with 4 nM Tb-PY20 antibody, Invitrogen PV3552) is added. The plate is covered and incubated for 45 minutes at room temperature. Time resolved fluorescence (TRF) on Molecular Devices M5 (332 nm excitation; 488 nm emission; 518 nm fluorescein emission) is measured. IC50 values are calculated using a four parameter fit with 100% enzyme activity determined from the DMSO control and 0% activity from the EDTA control.
“†” represents an IC50 of greater than 1 μM and equal to or less than 10 μM. “††” represents an IC50 of greater than 10 nM and equal to or less than 1 μM (10 nM<IC50≤1 μM). “†††” represents an IC50 of greater than 1 nM and equal to or less than 10 nM (1 nM<IC50≤10 nM). “††††” represents an IC50 of less than 1 nM.

IC50 [1] [µM] | IC50 (BTK) [µM] | Compound
1 to 10 | 0.01 to 1 | C=CC(=O)N1CCC(c2nc(-c3cnn(C)c3)cn3nccc23)C(C)C1 (stereo not drawn) [Example 15, 1-[3-methyl-4-[6-(1-methylpyrazol-4-yl)pyrazolo[1,5-a]pyrazin-4-yl]-1-piperidyl]prop-2-en-1-one]
1 to 10 | 0.01 to 1 | C=CC(=O)Nc1cccc(-c2nc(-c3cnn(C)c3)cn3nccc23)c1 [Example 28, N-(3-(6-(1-methyl-1H-pyrazol-4-yl)pyrazolo[1,5-a]pyrazin-4-yl)phenyl) acrylamide]
1 to 10 | 0.001 to 0.01 | C=CC(=O)N(C)c1cccc(-c2nc(-c3cnn(C)c3)cn3nccc23)c1 [Example 29, N-methyl-N-(3-(6-(1-methyl-1H-pyrazol-4-yl)pyrazolo[1,5-a]pyrazin-4-yl)phenyl)acrylamide]

Second part, the molecule before the results:

Compound | IC50 [1] [µM] | IC50 (BTK) [µM]
C=CC(=O)N1C2CCC1CC(c1nc(-c3cnn(C)c3)cn3nccc13)C2 (stereo not drawn) [Example 11, 1-[3-[6-(1-methylpyrazol-4-yl)pyrazolo[1,5-a]pyrazin-4-yl]-8-azabicyclo [3.2.1]octan-8-yl]prop-2-en-1-one] | 1 to 10 | 0.001 to 0.01
C=CC(=O)N1C2CCCC1CC(c1nc(-c3cnn(C)c3)cn3nccc13)C2 (stereo not drawn) [Example 13, 1-[3-[6-(1-methylpyrazol-4-yl)pyrazolo[1,5-a]pyrazin-4-yl]-9-azabicyclo[3.3.1]nonan-9-yl]prop-2-en-1-one] | 1 to 10 | 0.001 to 0.01
C=CC(=O)N1CC2CCC1CC2c1nc(-c2cnn(C)c2)cn2nccc12 (stereo not drawn) [Example 14, 1-[5-[6-(1-methylpyrazol-4-yl)pyrazolo[1,5-a]pyrazin-4-yl]-2-azabicyclo[2.2.2]octan-2-yl]prop-2-en-1-one] | 1 to 10 | 0.001 to 0.01
